Patent US12290513B2, “Therapeutic methods and compositions for treating movement disorders” (Vima Therapeutics, Inc., priority 2023, dated 2025)
pEC50: −log10 of the molar value. Read-outs that look alike come from different tables or passages of the source.

What was measured:
[1] = biological target: human muscarinic receptor M1 (Homo sapiens, UniProt P11229); test: cell-based
Procedure: (§1) All cells used in the following experiments were clonal populations of Chinese Hamster Ovary (CHO) cells stably expressing the corresponding human muscarinic receptor, except for the M4 cell line, which was a population of CHO cells transiently transfected with the human M4 receptor. […] The procedure was as follows: • 1. Cells were thawed and cultured in cell culture medium (DMEM/F12 containing 10% FBS, 1× penicillin-streptomycin and 600 μg/ml hygromycin B) at 37° C. in 5% (v/v) CO2. • 2. One day before the assays, cells were detached using TrypLE™ and counted using a cell-counter. […] 12,000 cells/well were seeded in 30 μl/well culture medium in a 384-well cell plate and incubated overnight at 37C, 5% (v/v) CO2. • 4. On the assay day, 2× dye solution was prepared following the manual of the FLIPR® Calcium 6 Assay Kit: • i. The dye was diluted with assay buffer (20 mM HEPES in 1× HBSS, PH 7.4); • ii. Probenecid was added to a final concentration of 5 mM; • iii. […] were vortexed vigorously for 1-2 minutes. • 5. Medium was removed from the cell plate by flicking the cell plate on paper towels. • 6. 10 μl of assay buffer and 10 μl of 2× dye solution was added to each well of the cell plate. • 7. The cell plate was shaken on a plate shaker at 600 rpm for 2 minutes and incubated at 37° C. for 2 hours followed by an additional 15-minute incubation at 25° C. • 8. The test compounds were next prepared in assay buffer: • a. All compounds were diluted to the required concentration with DMSO and added to a 384-well compound plate; • b. All compounds were serially diluted; • 1. Starting with 10 mM concentration of each test compound, all samples were serially diluted in 3-fold dilutions. • 2. 90 nl/well of each compound was transferred from the source plate to a 384-well compound plate using an Echo liquid handler. • 3. 30 μl/well assay buffer was added to the compound plate; • c. The plates were mixed on a plate shaker for 2 mins; • 9. The cell plate, compound plate and pipette tips were placed in the FLIPR screening system and 10 μl of each compound was added to a well of the cell plate. • 10. Plates were read for 160 sec with 1 sec intervals to obtain the data in agonist mode, then kept at 25° C. in the dark for 30 min. • 11.

[2] = biological target: human muscarinic receptor M3 (Homo sapiens, UniProt P20309); test: cell-based
Procedure: as §1

[3] = biological target: T1, human muscarinic receptor M2 (Homo sapiens, UniProt P08172); test: Calcium flux assay (FLIPR), CHO cells expressing human M2; format: cell-based; conditions: agonist mode
T1 construct: expressed in transfected cells
Procedure: (§2) All cells used in the following experiments were clonal populations of Chinese Hamster Ovary (CHO) cells stably expressing the corresponding human muscarinic receptor, except for the M4 cell line, which was a population of CHO cells transiently transfected with the human M4 receptor. Muscarinic agonism and antagonism of each receptor was measured by a quantitative calcium flux assay that is used for multiple classes of G-protein-coupled receptors, or GPCRs, as described elsewhere (e.g., Arkin et al., […], PMID: 22553878). Acetylcholine and atropine were used as positive controls for receptor agonism and antagonism, respectively. The procedure was as follows: • 1. Cells were thawed and cultured in cell culture medium (DMEM/F12 containing 10% FBS, 1× penicillin-streptomycin and 600 μg/ml hygromycin B) at 37° C. in 5% (v/v) CO2. • 2. One day before the assays, cells were detached using TrypLE™ and counted using a cell-counter. Only cells with >85% viability are used for the assay. • 3. […] Plates were read for 160 sec with 1 sec intervals to obtain the data in agonist mode, then kept at 25° C. in the dark for 30 min. • 11. […] Plates were read for 160 sec with 1 sec intervals, thereby measuring the ability for test compounds to antagonize the activation of muscarinic receptors by Ach.

[4] = biological target: T2, human muscarinic receptor M5 (Homo sapiens, UniProt P08912); test: Calcium flux assay (FLIPR), CHO cells expressing human M5; format: cell-based; conditions: agonist mode
T2 construct: expressed in transfected cells
Procedure: as §2

[5] = biological target: M1 Muscarinic Receptor (Homo sapiens, UniProt P11229); test: (S)-BTC titration on M1 in the presence of fixed (R)-THP concentrations; format: cell-based; conditions: with increasing concentration of (R)-THP (58.5, 195, 585 nM)
Procedure: All cells used in the following experiments were clonal populations of Chinese Hamster Ovary (CHO) cells stably expressing the corresponding human muscarinic receptor, except for the M4 cell line, which was a population of CHO cells transiently transfected with the human M4 receptor. […] The procedure was as follows: • 1. Cells were thawed and cultured in cell culture medium (DMEM/F12 containing 10% FBS, 1× penicillin-streptomycin and 600 μg/ml hygromycin B) at 37° C. in 5% (v/v) CO2. • 2. One day before the assays, cells were detached using TrypLE™ and counted using a cell-counter. […] 12,000 cells/well were seeded in 30 μl/well culture medium in a 384-well cell plate and incubated overnight at 37C, 5% (v/v) CO2. • 4. On the assay day, 2× dye solution was prepared following the manual of the FLIPR® Calcium 6 Assay Kit: • i. The dye was diluted with assay buffer (20 mM HEPES in 1× HBSS, PH 7.4); • ii. Probenecid was added to a final concentration of 5 mM; • iii. Cells were vortexed vigorously for 1-2 minutes. • 5. Medium was removed from the cell plate by flicking the cell plate on paper towels. • 6. 10 μl of assay buffer and 10 μl of 2× dye solution was added to each well of the cell plate. • 7. […] Plates were read for 160 sec with 1 sec intervals to obtain the data in agonist mode, then kept at 25° C. in the dark for 30 min. • 11.

[6] = In vivo PK of (S)-BTC in rats: plasma, brain, CSF; conditions: male, Sprague Dawley, rat, 10 mg/kg single oral dose; for Kp: po, 10 mg/kg
Procedure: 6-8-week-old male Sprague Dawley rats were fasted overnight prior to treatment. […] Treated animals were exsanguinated prior to brain collection, and brain samples were frozen at −80° C. […] Concentrations of compounds in the plasma, brain, CSF samples were analyzed using a standard LC-MS/MS method to detect parent test compound from each of the processed tissues. The following pharmacokinetic parameters were calculated and analyzed using WinNonlin (Phoenix™, version 8.3): T1/2, Cmax, Tmax, MRT, AUCinf, AUClast, F %, ratio of brain/plasma, ratio of CSF/plasma, and ratio of CSF/brain.

## C[C@@H](C[N+](C)(C)C)OC(N)=O.[Cl-] [(S)-BTC, (S)-bethanechol]
[1]
  pEC50: 6.71
[2]
  pEC50: 7.68
[3]
  pEC50: 6.39
[4]
  pEC50: 6.91
[5]
  agonist effect of (S)-BTC toward the M1 muscarinic receptor: decreases substantially
[6]; CSF and plasma, read-out: AUClast Ratio (CSF/Plasma)
  Kp: 0.00615
[6]; CSF and plasma, read-out: Cmax Ratio (CSF/Plasma)
  Kp: 0.00553
[6]; brain and plasma, read-out: AUClast Ratio (Brain/Plasma)
  Kp: 0.0499
[6]; brain and plasma, read-out: Cmax Ratio (Brain/Plasma)
  Kp: 0.0242
[6]; CSF, mean
  AUC(0-t): 6.31 ng·h/mL
  Cmax: 1.74 ng/mL
  Tmax: 0.5 h
[6]; brain, mean
  Cmax: 7.6 ng/g
  Tmax: 8 h
[6]; plasma, mean
  AUC(0-inf): 1080 ng·h/mL
  AUC(0-t): 1030 ng·h/mL
  Cmax: 314 ng/mL
  Tmax: 1 h
  half-life: 109 min
[6]; plasma, mean, read-out: MRTInf obs
  MRT inf: 2.91 h
